Measurements reported in patent US5536714A, “Steroid derivatives for the treatment of prostatic hypertrophy their preparation and uses” (Sankyo Company, Limited, priority 1992, dated 1996).

Tested on: Rat 5α-Reductase
Experiment: Rat 5α-Reductase Inhibition Test
Assay type: biochemical, rat (Sprague-Dawley, ventral prostate)
Settings: final concentration of test compound 10^-8 M; 1 μM [14C]-testosterone; pH 6.5; 37° C., 15 to 30 minutes
Protocol: The tissue was then homogenized, first with a Polytron (trade mark) homogenizer (manufactured by Kinematica, GmbH) and then with a Teflon-glass homogenizer (Teflon is a trade mark). The suspension of homogenized prostate tissue was then centrifuged (140000×g, 60 minutes), and the sediment was suspended by adding approximately a 5-fold amount of the above buffer. The suspension was again centrifuged (140000×g, 60 minutes). […] This was adjusted to a protein concentration of 30 to 40 mg/ml by the addition of the buffer described above, and the preparation was then stored frozen at -80° C. Measurement of the amount of protein was performed using the Bio-Rad Protein Assay method, and bovine γ-globulin (Cohn Fraction II, manufactured by Sigma) was used for the protein reference standard. […] The mixture was then incubated at 37° C. for 15 to 30 minutes. Testing was also performed on a control group by adding solvent only. Following incubation, 2 ml of ethyl acetate, containing 10 μg each of testosterone, 5α-dihydrotestosterone and androstenedione, were added to stop the reaction. […] The steroid was dissolved in 40 μl of ethyl acetate and spotted onto a thin layer chromatographic plate (LK5DF silica plate, manufactured by Whatman). The plate was then developed twice at room temperature with a mixture of ethyl acetate and cyclohexane (1:1 by volume). The steroid fraction was identified with ultraviolet light and stained using an aqueous solution of 1% w/v […] and 10% w/v sulfuric acid. The radioactivity profiles of the thin layer chromatographic plate were measured using a bio-image analyzer (manufactured by Fuji Photo Film). Enzyme activity was expressed as the proportion of [^14 C]-5α-dihydrotestosterone that was converted from the [^14 C]-testosterone (conversion rate (%)) added. […]

Structure (SMILES)	Inhibitory Activity [%]
C[C@]12CC[C@H]3[C@@H](CC=C4C=C(C(=O)O)CC[C@@]43C)[C@@H]1CC[C@@H]2C(=O)NC(c1ccccc1)c1ccccc1 [Example 1, 17β-[N-(Diphenylmethyl)carbamoyl]androsta-3,5-diene-3-carboxylic acid]	70.6
COc1cccc(C(C)(C)NC(=O)[C@H]2CC[C@H]3[C@@H]4CC=C5C=C(C(=O)O)CC[C@]5(C)[C@H]4CC[C@]23C)c1 [Example 9, 17β-{N-[1-(3-Methoxyphenyl)-1-methylethyl]carbamoyl}androsta-3,5-diene-3-carboxylic acid]	77.9
CCC(CC)(NC(=O)[C@H]1CC[C@H]2[C@@H]3CC=C4C=C(C(=O)O)CC[C@]4(C)[C@H]3CC[C@]12C)c1ccccc1 [Example 12, 17β-[N-(1-Ethyl-1-phenylpropyl)carbamoyl]androsta-3,5-diene-3-carboxylic acid]	74.0
CCOc1ccc(C(C)(C)NC(=O)[C@H]2CC[C@H]3[C@@H]4CC=C5C=C(C(=O)O)CC[C@]5(C)[C@H]4CC[C@]23C)cc1 [Example 13, 17β-{N-[1-(4-Ethoxyphenyl)-1-methylethyl]carbamoyl}androsta-3,5-diene-3-carboxylic acid]	84.3
COc1ccc(C(NC(=O)[C@H]2CC[C@H]3[C@@H]4CC=C5C=C(C(=O)O)CC[C@]5(C)[C@H]4CC[C@]23C)c2ccccc2)cc1 (stereo partly drawn) [Example 21, 17β-[N-(4-Methoxybenzhydryl)carbamoyl]androsta-3,5-diene-3-carboxylic acid]	84.9
C[C@]12CC[C@H]3[C@@H](CC=C4C=C(C(=O)O)CC[C@@]43C)[C@@H]1CC[C@@H]2C(=O)N(Cc1ccccc1)Cc1ccccc1 [Example 25, 17β-(N,N-Dibenzylcarbamoyl)androsta-3,5-diene-3-carboxylic acid]	79.3

Next, values leading:

Inhibitory Activity [%]	Structure (SMILES)
28.1	CC(C)(C)NC(=O)[C@H]1CC[C@H]2[C@@H]3CC=C4C=C(C(=O)O)CC[C@]4(C)[C@H]3CC[C@]12C [Compound B, 17β-t-butylcarbamoylandrosta-3,5-diene-3-carboxylic acid, reference compound]
70.6	COc1ccc(C(C)(C)NC(=O)[C@H]2CC[C@H]3[C@@H]4CC=C5C=C(C(=O)O)CC[C@]5(C)[C@H]4CC[C@]23C)cc1 [Example 2, 17β-{N-[1-(4-Methoxyphenyl)-1-methylethyl]carbamoyl}androsta-3,5-diene-3-carboxylic acid]
89.4	C[C@]12CC[C@H]3[C@@H](CC=C4C=C(C(=O)O)CC[C@@]43C)[C@@H]1CC[C@@H]2C(=O)NC(Cc1ccccc1)c1ccccc1 (stereo partly drawn) [Example 6, 17β-[N-(1,2-Diphenylethyl)carbamoyl]androsta-3,5-diene-3-carboxylic acid]
70.3	COc1ccc(C(C)(C)NC(=O)[C@H]2CC[C@H]3[C@@H]4CC=C5C=C(C(=O)O)CC[C@]5(C)[C@H]4CC[C@]23C)cc1OC [Example 7, 17β-{N-[1-(3,4-Dimethoxyphenyl)-1-methylethyl]carbamoyl}androsta-3,5-diene-3-carboxylic acid]
73.5	Cc1ccc(C(C)(C)NC(=O)[C@H]2CC[C@H]3[C@@H]4CC=C5C=C(C(=O)O)CC[C@]5(C)[C@H]4CC[C@]23C)cc1 [Example 11, 17β-{N-[1-(4-Methylphenyl)-1-methylethyl]carbamoyl}androsta-3,5-diene-3-carboxylic acid]
73.3	C[C@]12CC[C@H]3[C@@H](CC=C4C=C(C(=O)O)CC[C@@]43C)[C@@H]1CC[C@@H]2C(=O)NC(c1ccccc1)c1ccc(O)cc1 (stereo partly drawn) [Example 15, 17β-[N-(4-Hydroxybenzhydryl)carbamoyl]androsta-3,5-diene-3-carboxylic acid]
81.7	C[C@]12CC[C@H]3[C@@H](CC=C4C=C(C(=O)O)CC[C@@]43C)[C@@H]1CC[C@@H]2C(=O)NC(c1ccc(F)cc1)c1ccc(F)cc1 [Example 16, 17β-[N-(4,4'-Difluorobenzhydryl)carbamoyl]androsta-3,5-diene-3-carboxylic acid]
